# Experimental data from patent US20260273011A1, “COMPOSITION COMPRISING STEWARTIA PSEUDOCAMELLIA EXTRACT AS ACTIVE INGREDIENT FOR PREVENTION OR TREATMENT OF DEMENTIA” (priority 2022, published 2026).
# Read-outs that look alike come from different tables or passages of the source. Ends that are not written are not given here.
# Columns and labels:
# [1] = system: human neuroblastoma SH-SY5Y cells; details: H2O2 50 μM, 24 hours
# Protocol: First, the cells were plated into a 96-well plate at a concentration of 5×10^3 cells/well, and then cultured for 24 hours at 95% humidity, 5% CO2, and 37° C. for stabilization. After removing the medium, 10 μl of H2O2 diluted with fresh medium was treated at each concentration, and the resulting mixture was allowed to react for 24 hours at 95% humidity, 5% CO2, and 37° C.
# The viability of the cells was measured using the MTS (CellTiter 96® AQueous One Solution Cell Proliferation Assay, Promega, USA) reagent. In other words, 10 μl of the reagent was treated per well, and after a reaction at 37° C. for 60 minutes, the absorbance was measured at 490 nm using a microplate reader (Molecular Devices LLC, VersaMax ELISA Microplate Reader, USA).
# [2] = system: human neuroblastoma SH-SY5Y cells; assay: Neuroprotective effect against Aβ-peptide 25-35 cytotoxicity (MTS); format: cell-based; parameters: dose or concentration left out as unconfirmed; details: Aβ treatment
# Protocol: (§1) To measure the neuronal cell death concentration by Aβ 25-35, Aβ-protein fragment 25-35 (Sigma-Aldrich, A4559-1 MG) was purchased and used.
# (§2) For the aggregation of Aβ, it was dissolved in distilled water and allowed to react at 37° C. for five days at 150 rpm.
# [3] = system: human neuroblastoma SH-SY5Y cells; assay: Neuroprotective effect against H2O2 cytotoxicity (MTS); format: cell-based; details: 50 μM H2O2 treatment
# Protocol: After removing the medium, […], which has a cell viability of about 50%, was treated with fresh medium, and then 10 μl of the samples of Examples 1 to 4 and Comparative Example 1 were treated at each concentration, and the resulting mixtures were allowed to react at 95% humidity, 5% CO2, and 37° C. for 24 hours.
# [4] = system: human neuroblastoma SH-SY5Y cells; assay: Human neuroblastoma SH-SY5Y cell toxicity (MTS); format: cell-based
# Protocol: Neuronal cells (human neuroblastoma SH-SY5Y) were obtained from the Korean Cell Line Bank (KCLB, Seoul, Korea). The medium used was a minimum essential medium (SH30024.01, Cytiva, USA) containing 10% fetal bovine serum (FBS, Gibco, CA, USA) medium, 25 mM 4-(2-hydroxyethyl)-1-piperazine ethanesulfonic acid (HEPES), and 25 mM NaHCO3. The cells were cultured in an incubator controlled at 95% humidity, 5% CO2, and 37° C., and an antibiotic for the medium (penicillin-streptomycin, Gibco, CA, USA) was used to suppress microbial contamination or proliferation. When the cells covered about 80% of the dish, the dish was washed with phosphate-buffered saline-ethylenediaminetetraacetic acid (PBS-EDTA, Thermo Fisher Scientific, Massachusetts, USA), and then 1 ml of 0.05% trypsin-EDTA (Gibco, Thermo Fisher Scientific, Massachusetts, USA) was used to detach the cells attached to the bottom of the dish and subculture them. The medium was exchanged with fresh medium every 48 to 72 hours to culture the cells.
# After removing the medium, 100 μl of the sample diluted with fresh medium was applied and allowed to react with the cells for 24 hours in an incubator at 95% humidity, 5% CO2, and 37° C.
# In other words, 1 ml of the reagent was diluted with 9 ml of medium (DMEM high glucose, free FBS), and 100 μl of the mixture was added to each well.
# SH-SY5Y cells = assay: ROS generation suppression ability in neurons (DCF-DA, H2O2); format: cell-based, human; details: ursolic acid 0.1 to 5 μg/ml
# Protocol: The generation of ROS is measured by the intensity of fluorescent material generation using 2′,7′-dichlorofluorescin diacetate (DCF-DA), and the principle is that 2′,7′-dichlorofluorescin (DCF) in a reduced or acetylated form releases a fluorescent material ([…]) when the acetate group is removed by the […] and ROS generated within cells.
# SH-SY5Y cells were plated into a 96-well plate (100 μl) at a concentration of 5×10^4 cells/well and cultured for 24 hours. After the culture, the medium was removed, and the sample was treated at an appropriate concentration using a medium containing no serum and then cultured for 24 hours. After 24 hours, 100 μl of PBS was added and the resulting mixture was washed, and this process was repeated three times. DCF-DA dissolved in dimethyl sulfoxide (DMSO) was diluted to 20 μM (in PBS), and 100 μl of the diluted solution was added and incubated for 20 minutes. After adding 100 μl of 100 μM H2O2 (in PBS), the mixture was allowed to react for 30 minutes, and the fluorescence intensity was measured at 486 nm and 535 nm using an enzyme-linked immunosorbent assay (ELISA) reader.
# [5] = system: human neuroblastoma SH-SY5Y cells; assay: Cell death concentration for Aβ-peptide 25-35 (MTS); format: cell-based; details: Aβ 20 μM, 24 hours
# Protocol: as §1, §2
compound,measurement,setting,value
"OO [Example H2O2, Hydrogen peroxide]",cell viability,[1],approximately 50%
C[C@H]1[C@H](C)CC[C@]2(C(=O)O)CC[C@]3(C)C(=CC[C@@H]4[C@@]5(C)CC[C@H](O)C(C)(C)[C@@H]5CC[C@]43C)[C@H]12 [ursolic acid],neuroprotective effect against Aβ-peptide 25-35 cytotoxicity,[2],significant effect
same,neuroprotective effect against H2O2 cytotoxicity,[3],high cell protection efficacy
same,concentration at which toxicity on neurons was exhibited,[4],≥ 10 µg/mL
same,ROS generation suppression ability,SH-SY5Y cells,significant suppression activity
"GSNKGAIIGLM [Aβ, Aβ-protein fragment 25-35]",cell viability,[5],approximately 50%
